Test results reported in patent US4629491A, “Oxidized sulfur derivatives of diaminophosphinyl compounds as urease inhibitors and urease inhibited urea based fertilizer compositions” (Allied Corporation, priority 1983, dated 1986).

Tested on: soil urease
Experiment: Soil urease inhibition efficacy test (urea remaining after incubation in soil)
Type: biochemical
Conditions: 40 micrograms per gram soil, incubated at 25° C. for three days, run in triplicate
Protocol: Efficacy tests were conducted to evaluate the efficacy of certain representative oxidized sulfur derivatives of diaminophosphinyl compounds as urease inhibitors. The inhibition tests were run in New York (Cazenovia Silt loam, pH 7.3) and Wisconsin (Plano silt loam pH 5.3) soils. Evaluations (run in triplicate) consisted of applying 800 micrograms of the test compound in 5 mL of water and 42.8 mg of urea in 1 mL of water to 20 g of air-dry soil in a glass bottle. The bottle was capped with perforated aluminum foil and incubated at 25° C. for three days prior to extraction with 100 mL of a 2M potassium chloride solution containing 0.5 mg of phenylmercuric acetate. The extracts were then analyzed for remaining urea using an autoanalyzer. Percent inhibition was calculated as [formula] where A is urea recovered from unincubated sample (urea added to soil and immediately extracted); B is urea recovered from inhibited sample; and C is urea recovered from the control (uninhibited sample).

[1] = Cazenovia silt loam (New York) pH 7.3
[2] = Wisconsin (Plano silt loam) pH 5.3

SMILES	% Inhibition [1] [%]	% Inhibition [2] [%]
Cc1ccc(S(=O)(=O)NP(N)(N)=O)cc1 [N-(Diaminophosphinyl)-p-toluene-sulfonamide]	86	51
NP(N)(=O)NS(=O)(=O)c1ccccc1 [N-(Diaminophosphinyl)benzenesulfonamide]	91	23
